Series [1] deals with J774A1 macrophages infected with alad/pbgd double transfectants. Put plainly: Intracellular transgenic amastigotes and macrophages per culture after ALA. It counts as cell-based, mouse. As to conditions: 1-2 mM ALA. On the procedure:
J774A1 cells were infected in vitro with alad/pbgd double transfectants of L. amazonensis at a promastigote-to-macrophage ratio of 10:1. Infected cultures were maintained at 35° C. with daily medium renewal for 42 days. Cultures were split equally into two, one with and the other without the addition of 1-2 mM ALA 3 times on days 2, 26 and 40 post-infection (arrows). The total number of intracellular amastigotes (left) and macrophages (right) per culture were estimated at the time points indicated, as described (Chang, 1980). Note: Decrease of intracellular amastigotes in number after the 1st 2 ALA treatments.
Intra-macrophage amastigotes are lysed selectively when rendered uroporphyric in situ, as determined by quantitative analysis of parasites and macrophages in such infected cultures (FIG. 15). This observation further strengthens the use of porphyric Leishmania as a live model for vaccine delivery. We observed this by using macrophages infected with the double transfectants. The infected cultures were split equally into 2 identical sets. In a total period of 42 days, one set received 3 separate ALA treatments, each pulsed for ˜24 hrs, at different time points after infection, while the other set received no treatments (see legend to FIG. 15 for experimental conditions). […]

Series [2] has as its system hamster lymph node mononuclear cells. Put plainly: Proliferation of lymph node cells to Con-A and Leishmania soluble antigens, tritiated thymidine. Particulars: 45 days after challenging infection, 20 ug/ml antigen. The series is classed as cell-based. On the procedure:
Lymph nodes of hamsters from experimental and control groups, as indicated, were used 45 days after challenging infection to prepare mononuclear cell-suspension (10^6/ml). Aliqouts of 100 ul were cultured in 96 well flat bottom tissue culture plates (Nunc, Denmark). 100 ul of Conconavalin A or soluble L. donovani promastigote antigens were added to each well, giving a final concentration of 10 ug/ml and 20 ug/ml, respectively. Cultures were prepared in triplicate for each sample and incubated at 37° C. and 5% CO2 for 3 days and 5 days for Con-A treated and antigen-treated cells, respectively. Eighteen hours prior to termination of incubation of cultures, 0.5 uCi of tritiated-thymidine was added to each well. Cells were harvested on to glass fiber mats (Whatman) for liquid scintillation counting.

The subject of series [3] is Leishmania donovani DD8. Briefly: Hamster vaccination, Experiment 2, challenge with L. donovani. It counts as in vivo, Syrian Golden hamsters. From the text: The values for body weights were from all animals available at specific time points. Two animals were sacrificed per group per time point for assessing spleen weights and parasite loads;
Impression smears (Left panel) of cut spleens were Geimsa-stained and examined microscopically under oil immersion lens to enumerate amastigotes per 1,000 splenic nuclei as a measure of parasite loads (Right Panel). Note: Parasite loads decrease precipitously after day 45 in contrast to the control groups. The data are consistent with the data for animal body weights and spleen weights; and
The 2nd experiment was designed to verify and to strengthen the results of the 1st experiment by including 2 additional control groups. One is to treat animals with ALA alone so as to eliminate the potential contribution of this metabolite to the outcome observed. Another is to include pbgd single transfectants (ST) as an additional non-porphyric control to ascertain that the prophylactic effects observed are independent of factors specific to DT or L. amazonensis infection alone. There is some indication of this in the 1st experiment for “vaccination” of hamsters with the DT−ALA+LD group whose splenic parasite loads remained high, but the amastigotes look degenerative (FIG. 20). Except for “vaccination” on the back and illumination with white light, experimental conditions otherwise followed those in the 1st as follows:
A total of 50 Syrian Golden hamsters (40-45 gm) were used 10 per group for each of the following experimental and control groups:
Day 6 (Sep. 28, 2004): Harvest and resuspend cells for inoculation intradermally to a shaved area (˜2 cm×2 cm) on the back of the animals as follows:
Days 9-12 (Oct. 1-4, 2004): inject the same site of each animal daily 4× with 20 ul […] ALA solution
Days 13-17 (Oct. 5-9, 2004): Illuminate caged animals from 9 AM to 5 PM daily for five days under white light [Four bulbs of 100 W (Phillips)+2 tube lights of 40 W in an AC room of 6 ft×6 ft×10 ft] 2 ft above, keeping a constant temperature of 26-27° C.
[…] (Oct. 25, 2004): Challenge 9 animals of each group with 107 DD8 strain of L. donovani amastigotes/animal by intracardiac route.
Day 78 (Dec. 9, 2004): Parasitological/immunological evaluations-45 days post-challenge (FIG.).
Day 93 (Dec. 24, 2004): Parasitological/immunological evaluations-60 days post-challenge (FIG.).
Day 147 (Feb. 16, 2005): survivors left of a total of 4 animals 114 days after challenge, excluding 6 sacrificed for experimentation on days 0, 45, and 60.

Structures are written as SMILES.

Take `NCC(=O)CCC(=O)O` [ALA, delta-aminolevulinate]: the “growth of J774A1 macrophages” value in series [1] is given as “unaffected”. Further, the “lymph node cell response to LSA” value in series [2] is given as “virtually no response”. In addition, the “survivors left of a total of 4 animals” value in series [3] (114 days after challenge) is on record as 0/4. In addition, the immunoprophylactic effect entry in series [3] (ALA treatment alone) was “ineffective”. For the same compound, the “splenic parasite loads, amastigotes in impression smears” value in series [3] (day 45 to day 60 post challenge) was “abundant in number”. The “splenomegaly by spleen weight” value in series [3] (days 45 and 60 post-challenge) is given as “most pronounced”.

For the origin of these results see patent publication US7238347B2, “Suicidal mutant Leishmania vaccine” (priority 2005, dated 2007).
